Laboratory results published in patent US20100041594A1, “Use of Aplidine for the Treatment of Pancreatic Cancer” (Pharma Mar, S.A., priority 2001, published 2010).
Marks after values point to notes of the source that are not given here. Starred links: 1 amine or outer side, 2 acyl side, 3 side chain; linkers in the order of their positions; H or OH if unused. Positions of bridges follow the written chain, without caps; N, C: chain ends. Non-standard residues stand in square brackets, D forms with d. Residues, ends and D or L forms follow the SMILES beside them. *: point of attachment. X1 = CC[C@H](C)[C@@H](N[*:1])[C@@H](O)CC(=O)O[C@H](C(=O)[C@H](C)C(=O)[*:2])C(C)C; NMeY = CN[C@@H](Cc1ccc(O)cc1)C(=O)O; dNMeL = CN[C@H](CC(C)C)C(=O)O; Pyruvoyl = CC(=O)C(=O)*

Experiments:
[1] = system: lewis lung carcinomas; settings: cited from earlier work
[2] = system: P388 leukaemia and B 16 melanoma; settings: mouse, in vivo; cited from earlier work
[3] = system: prostate tumour; settings: 1.25 mg/kg; cited from earlier work
[4] = system: NP9 peritoneal implants; assay: NP9 peritoneal metastases after orthotopic implantation; type: in vivo, Nu/Nu Swiss mice
From the text: (§1) Aplidine is a new cyclic depsipeptide with anticancer activity in vitro and in vivo in different tumour types, but it has not been tested in pancreatic carcinoma. Nevertheless, this pathology has a poor prognosis because of difficult early diagnosis, aggressiveness and lack of effective systemic therapies. Most patients die of metastases present at diagnosis. We compared the antitumour effect of aplidine against 2 human pancreatic carcinomas, NP9 and NP18, using orthotopic (ORP) and subcutaneous (SC) tumour implantation models. […] METHODS: Groups of ten male Nu/Nu Swiss mice (4 wk old) were treated with vehicle or aplidine. To evaluate primary tumour response, ip aplidine was given, starting 2 weeks (wk) after implantation, at 0.8 mg/kg q4d for 4 wk (NP9) or at 0.8 mg/kg q4d for 6 wk, ceasing treatment the 4th and 5th wk (NP18). To evaluate the response of NP9 metastasis aplidine regime was 0.8 mg/kg q4d per 3 doses, starting 4 weeks after implantation. We measured final tumour weight, macroscopic viability (viable cortex/total tumour weight), microscopic necrosis, apoptotic induction and signal transduction. […] This effect was due to apoptotic induction leading to a reduced number of viable cells in both tumours. Apoptotic induction on NP18 was associated with PARP cleavage and reduced AKT activation, only in ORT-treated tumours. aplidine induced a decrease in cyclins B1 and D1 and FAK expression only in ORT NP9-treated tumours. […] CONCLUSIONS: The use of an ORT implantation model permitted the observation of the antitumour effect of aplidine on primary tumours and metastases of human pancreatic carcinomas. aplidine altered apoptotic and proliferative pathways, which could explain its antitumour effect.
(§2) We used two human pancreatic carcinomas (NP18 and NP9) perpetuated as orthotopic xenografts in nude mice. NP9 produce an extensive peritoneal dissemination 4-5 weeks after implantation (metastatic). We implanted these tumours in four week-old male Nu/Nu Swiss mice (Charles River), housed in autoclaved cages and provided y-ray sterilized bedding and food. They were anesthetized with 2,2,2-tribromoethanol (Sigma-Aldrich) and 10 mg fragments of each tumour from previous passages were implanted orthotopically (ORT, at the pancreas). Xenografted animals were randomly distributed in control (n=10) and experimental (n=10) groups just before treatment. We excluded animals bearing non palpable tumours after ORT implantation, or with tumour volumes lower than 0.13 cm^3 (0.5 cm in diameter). Treatment schedule depended on tumour growth rate. In the fast growing NP9 tumour, two schedules of treatment were used. In one, treatment started two weeks after tumour implantation, before peritoneal dissemination had occurred. Each animal in the experimental group received ip administrations of aplidine at a dose of 0.8 mg/Kg q4d per four weeks. In the other schedule, treatment started four weeks after tumour implantation, once peritoneal dissemination had occurred, with a regime of aplidine of 0.8 mg/Kg q4d per three doses. The existence of macroscopically visible implants was confirmed one day before the treatment begun, by the sacrifice of one extra animal. In the NP18 tumour, treatment started 4 weeks after tumour implantation and the schedule of aplidine was 0.8 mg/Kg q4d ip for 4 weeks, ceasing treatment for two weeks, and continuing with 0.8 mg/Kg q4d ip for two additional weeks. The animals in the corresponding control groups received i.p. administrations of vehicle following the same schedule. After implantation, and during treatment, mice were inspected twice a week and weighted weekly to monitor for compound toxicity.
(§3) At the end of treatment, animals were euthanized and dissemination recorded. Primary tumours were excised and weighted in all groups. Tumor aliquots were frozen down in liquid nitrogen or fixed in formaline. We counted the number of peritoneal implants in each animal and took samples for histological and molecular analysis. […]

[5] = system: gastric tumours; settings: 1.25 mg/kg; cited from earlier work
[6] = Stability of aplidine solution and lyophilised dosage form; type: physicochemical
Protocol: In a currently preferred embodiment freeze-drying was performed from a […] solution of aplidine in 40% (v/v) tert-butanol in Water for Injection (Wfl) containing 25 mg/mL D-mannitol as bulking agent. […] Both reconstituted product and dilutions (up to 1:100 v/v) of the reconstituted product with normal saline appeared to be stable for at least 24 hours after preparation.

[7] = system: MDA-MB231; settings: aplidine 50 nmol/L; cited from earlier work
[8] = system: CT-1, CT-2 and HT-29 cell lines; settings: CT-1, CT-2, HT-29; cited from earlier work
[9] = system: pancreatic tumour; settings: 4 patients with pancreatic tumour, phase I; cited from earlier work
[10] = target: T1, ornithine decarboxylase (Homo sapiens, UniProt P11926); settings: all three cell lines; cited from earlier work
T1 construct: endogenous in cells; host or cells: CT-1, CT-2 and HT-29 colon cell lines
T1 sequence (P11926 1-461): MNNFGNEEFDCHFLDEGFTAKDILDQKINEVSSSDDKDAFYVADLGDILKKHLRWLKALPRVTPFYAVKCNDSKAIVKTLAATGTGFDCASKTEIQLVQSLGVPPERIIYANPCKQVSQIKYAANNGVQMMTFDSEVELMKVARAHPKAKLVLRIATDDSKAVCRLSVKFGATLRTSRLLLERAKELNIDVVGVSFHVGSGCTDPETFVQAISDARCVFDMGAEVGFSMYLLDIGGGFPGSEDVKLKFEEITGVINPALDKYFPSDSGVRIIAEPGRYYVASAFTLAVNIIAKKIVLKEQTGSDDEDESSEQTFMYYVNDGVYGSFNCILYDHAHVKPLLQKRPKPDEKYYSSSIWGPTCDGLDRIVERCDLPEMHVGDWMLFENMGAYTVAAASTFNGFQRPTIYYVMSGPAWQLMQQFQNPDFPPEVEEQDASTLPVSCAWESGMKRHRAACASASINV

[11] = system: NP18 human pancreatic carcinoma; assay: NP18 human pancreatic carcinoma xenograft, primary tumour; type: in vivo, Nu/Nu Swiss mice; settings: for Total tumour weight (g): 0.8 mg/kg q4d ip
From the text: as §1, §2, §3

[12] = system: human cancer xenografts; settings: cited from earlier work
[13] = system: MCF-7; settings: aplidine 50 nmol/L; cited from earlier work
[14] = system: Non-small cell lung cancer, breast cancer and melanoma cell lines; settings: continuous exposure; cited from earlier work
[15] = system: NP9 human pancreatic carcinoma; assay: NP9 human pancreatic carcinoma xenograft, primary tumour; type: in vivo, Nu/Nu Swiss mice; settings: for Solid tumour weight (g) / Total tumour weight (g): 0.8 mg/kg q4d ip
From the text: as §1, §2, §3

## CC[C@H](C)[C@H]1NC(=O)[C@@H](NC(=O)[C@@H](CC(C)C)N(C)C(=O)[C@@H]2CCCN2C(=O)C(C)O)[C@@H](C)OC(=O)[C@H](Cc2ccc(OC)cc2)N(C)C(=O)[C@@H]2CCCN2C(=O)[C@H](CC(C)C)NC(=O)[C@@H](C)C(=O)[C@H](C(C)C)OC(=O)C[C@@H]1O (some centres unmarked) [didemnin B, reference compound]
[1]
  activity in SC implanted lewis lung carcinomas: Unlike didemnin B, aplidine was active

## CC[C@H](C)[C@H]1NC(=O)[C@@H](NC(=O)[C@@H](CC(C)C)N(C)C(=O)[C@@H]2CCCN2C(=O)C(C)=O)[C@@H](C)OC(=O)[C@H](Cc2ccc(OC)cc2)N(C)C(=O)[C@@H]2CCCN2C(=O)[C@H](CC(C)C)NC(=O)[C@@H](C)C(=O)[C@H](C(C)C)OC(=O)C[C@@H]1O [aplidine] (Pyruvoyl-P[dNMeL]T[X1]LP[NMeY](Me); ester 3-C)
[2]
  activity against implanted tumours: active
  optimal dose: 160 micro/kg
[3]
  T/C: 25%
[4]; established metastases
  apoptotic nuclei per treated implant (Hoescht): 3-6
[4]; mouse, in vivo
  Caspase-3 activation and PARP cleavage in metastases: No activation of Caspase-3 nor PARP cleavage
  necrosis in peritoneal implants (H&E): did not contain necrotic areas
[4]; treatment initiated before dissemination, 0.8 mg/Kg q4d four weeks
  peritoneal implants: no peritoneal implants were observed in any animal
[4]; treatment started once metastases macroscopically evident
  diameter of peritoneal implants: less than 1 mm
[4]; treatment started once metastases macroscopically evident, 0.8 mg/Kg q4d three doses
  number of peritoneal implants per animal: 7-20
[4]; vs control metastases
  ERK activation in metastases: lower ERK activation
[5]
  T/C: 14%
[6]
  degradation under stress testing: substantial degradation
[7]
  inhibition of growth: 17%
[8]
  cytotoxic activity: dose-dependent cytotoxic activity
[9]
  tumour response of patients: did not respond
[10]
  ornithine decarboxylase activity: decreased ornithine decarboxylase activity
[11]; NP18
  size or macroscopic appearance of primary tumour: did not significantly change
[11]; NP18, ORT
  AKT activation (Western blot): Decrease AKT activation
  PARP cleavage (Western blot): PARP cleavage
  caspases 3, 7 and 8 (Western blot): activation of caspases 3, 7 and 8
  Total tumour weight (g): 9.34 ± 1.3^d g
[11]; NP18, ORT treated vs ORT control
  microscopic necrosis (H&E): significantly higher level of necrosis
[11]; NP18, ORT, viable tissue
  apoptosis (Hoescht nuclear staining): significantly increased apoptosis
[11]; NP18, SC
  AKT, caspases 3, 7, 8 and PARP regulation (Western blot): did not alter the regulation of any of these proteins
  Total tumour weight (g): 15.5 ± 5.3^c g
[11]; NP18, any site
  ERK activation (Western blot): No differences in ERK activation
  difference in total or solid tumour weight vs control: no significant differences
[12]; 2.1 mg/kg
  treated/control (T/C) tumour ratio: 9%
[12]; mice bearing human cancer xenografts
  maximum tolerated dose: 2.1 mg/kg
[13]
  inhibition of growth: 47%
[1]
  activity in SC implanted lewis lung carcinomas: active
[14]
  concentration to which cell lines were sensitive: >= 0.001 micromol/L
[15]; NP9
  active forms of caspases 3, 7 or 8 (Western blot): No active forms of caspases 3, 7 or 8 were detected
[15]; NP9, ORT
  FAK expression (Western blot): downregulation of FAK
  cyclin B1 and cyclin D1 expression (Western blot): decreased expression of cyclin B1 and cyclin D1
  macroscopic appearance, invasion by primary tumour: did not invade other organs of the peritoneum
  Solid tumour weight (g): 3.04 ± 1.04^f g
  Total tumour weight (g): 3.72 ± 1.09^b g
[15]; NP9, ORT treated
  foci of non-viable/necrotic cells, share of each tumour: 75-100%
[15]; NP9, ORT, viable tissue
  Ki67: downregulation
  apoptosis (Hoescht nuclear staining): significantly increased apoptosis
[15]; NP9, SC
  cyclin B1 and cyclin D1 levels (Western blot): no differences in cyclin B1 or cyclin D1 levels
  Solid tumour weight (g): 0.87 ± 0.44^e g
  Total tumour weight (g): 1.56 ± 0.8^a g
[15]; NP9, any site
  difference in total or solid tumour weight vs control: no significant differences
[15]; NP9, both tumour sites
  ERK activation (Western blot): ERK activation was unaltered
